Source: patent US10150755B2, “ASK1 inhibitor compounds and uses thereof” (Seal Rock Therapeutics, Inc., priority 2017, dated 2018)

Legend:
[1] = molecular target: ASK1 (Homo sapiens (Human), UniProt Q99683); assay: ASK1 Kinase Assay (Promega ASK1 Kinase Enzyme System, ADP-Glo); type: biochemical; details: enzyme 50 nM, ATP 10 μM
Method: The ASK1 enzymatic assay was run following Promega ASK1 Kinase Enzyme System (Cat #V3881). The kit provides the protocol, enzymes and all reagents necessary to run an assay. Firstly, the compounds, enzyme, substrate and ATP were diluted in provided assay buffer. The final concentration of the enzyme was 50 nM, substrate (Myelin basic protein) 1 μg/ml and ATP 10 μM. The compound and the enzyme were pre-incubated in a 384 well white solid bottom plate (Greiner, Cat#784075) for 10 minutes. After incubation, the substrate and ATP were added and incubated for further 60 minutes. After 60 minutes, ADP-Glo™ was added and plate was incubated for another 40 minutes. After 40 minutes, Kinase Detection Reagent was added and the plate was incubated for 45 minutes. After 45 minutes, plate was read on Perkin Elmer EnVision using luminescence read (0.5 seconds/well).

[2] = tested on: LPS-induced TNFalpha in Human PBMCs; assay: Inhibition of LPS-induced TNFalpha in Human PBMCs; type: cell-based; details: PBMC, 100 ng/ml LPS, 6 hr, read-out: TNFa Inhibition IC50
Method: Cryopreserved human PBMCs were obtained from AllCells (cat# PB003F). After thawing/dilution protocols using RPMI medium supplemented with 5% FBS (heat inactivated), 100 ul/well of 1×10^6 cells/ml were plated into 96 well tissue culture plates (Corning). Cells were then pre-incubated for 1 hr at 37° C. in humidified 5% CO2 and 95% air with test compounds diluted in DMSO (final DMSO concentration 0.3%). Each compound was tested at 10 concentrations in duplicate wells. After the pre-incubation, 100 ng/ml LPS (E. Coli; Sigma) in RPMI media with 5% FBS was added for a 6 hr incubation at 37° C. in humidified 5% CO2 and 95% air. Controls on each plate included cells and LPS only, cells and media only (no LPS), and media only. After the 6 hr incubation, plates were centrifuged and the supernatants transferred to a new plate and frozen for subsequent TNFalpha analysis. Human TNFalpha was analyzed by ELISA according to the manufacturer's instructions (BD Sciences, BD OptEIA™ Cat#550610) and analyzed on a SpectraMax M series (Molecular Devices) microplate reader at OD 450 nm. IC50s were calculated using XLFit4 curve fitting software (IDBS) and a 4-parameter one-site sigmoid dose response fit.

ASK1, sequence (Q99683 649-946 limits assumed): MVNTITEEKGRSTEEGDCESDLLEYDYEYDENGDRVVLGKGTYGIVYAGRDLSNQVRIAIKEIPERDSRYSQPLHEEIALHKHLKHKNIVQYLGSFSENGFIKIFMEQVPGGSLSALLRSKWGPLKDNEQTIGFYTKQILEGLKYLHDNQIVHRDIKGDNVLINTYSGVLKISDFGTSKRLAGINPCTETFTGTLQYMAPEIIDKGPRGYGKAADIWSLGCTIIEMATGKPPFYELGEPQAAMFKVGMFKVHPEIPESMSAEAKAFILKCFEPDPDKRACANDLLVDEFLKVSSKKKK

| Compound | IC50 [1] [µM] | IC50 [2] [µM] |
| --- | --- | --- |
| CN(C)C(=O)c1ccc2c(c1)CN(c1cccc(-c3nncn3C3CC3)n1)C2=O [Compound 2, 2-(6-(4-Cyclopropyl-4H-1,2,4-triazol-3-yl)pyridin-2-yl)-N,N-dimethyl-1-oxoisoindoline-5-carboxamide] | < 0.2 | 2 to 10 |
| O=C1c2cc(-c3cccnc3)ccc2CN1c1cccc(-c2nncn2C2CC2)n1 [Compound 40, 2-(6-(4-cyclopropyl-4H-1,2,4-triazol-3-yl)pyridin-2-yl)-6-(pyridin-3-yl)isoindolin-1-one] |  | < 2 |
| Cc1ccncc1-c1ccc2c(c1)C(=O)N(c1cccc(-c3nncn3C3CC3)n1)C2 [Compound 41, 2-(6-(4-cyclopropyl-4H-1,2,4-triazol-3-yl)pyridin-2-yl)-6-(4-methylpyridin-3-yl)isoindolin-1-one] |  | < 2 |
| O=C1c2cc(-c3ccc(C4CC4)nc3)ccc2CN1c1cccc(-c2nncn2C2CC2)n1 [Compound 46, 2-(6-(4-cyclopropyl-4H-1,2,4-triazol-3-yl)pyridin-2-yl)-6-(6-cyclopropylpyridin-3-yl)isoindolin-1-one] |  | < 2 |
| O=C1c2cc(-c3cnc(C4CC4)cn3)ccc2CN1c1cccc(-c2nncn2C2CC2)n1 [Compound 60, 2-(6-(4-cyclopropyl-4H-1,2,4-triazol-3-yl)pyridin-2-yl)-6-(5-cyclopropylpyrazin-2-yll)isoindolin-1-one] |  | > 0.01 |
| COc1cc2c(cc1-c1cccnc1)C(=O)N(c1cccc(-c3nncn3C3CC3)n1)C2 [Compound 66, 2-(6-(4-cyclopropyl-4H-1,2,4-triazol-3-yl)pyridin-2-yl)-5-methoxy-6-(pyridin-3-yl)isoindolin-1-one] |  | < 2 |
| O=C(c1cc2c(cc1-c1cccnc1)C(=O)N(c1cccc(-c3nncn3C3CC3)n1)C2)N1CCCC1 [Compound 71, 2-(6-(4-cyclopropyl-4H-1,2,4-triazol-3-yl)pyridin-2-yl)-6-(pyridin-3-yl)-5-(pyrrolidine-1-carbonyl)isoindolin-1-one] | < 0.2 | 2 to 10 |
| CC(C)n1cnnc1-c1cccc(N2Cc3ccc(-c4cccnc4)cc3C2=O)n1 [Compound 85, 2-(6-(4-isopropyl-4H-1,2,4-triazol-3-yl)pyridin-2-yl)-6-(pyridin-3-yl)isoindolin-1-one] | < 0.2 |  |
| O=C1c2ccccc2CN1c1nccc(-c2nncn2C2CC2)n1 [Compound 86, 2-(4-(4-cyclopropyl-4H-1,2,4-triazol-3-yl)pyrimidin-2-yl)isoindolin-1-one] | 1 to 10 |  |
| O=c1c2ccccc2[nH]n1-c1cccc(-c2nncn2C2CC2)n1 [Compound 87, 2-(6-(4-cyclopropyl-4H-1,2,4-triazol-3-yl)pyridin-2-yl)-1,2-dihydro-3H-indazol-3-one] | 1 to 10 |  |
| Cn1c2ccccc2c(=O)n1-c1cccc(-c2nncn2C2CC2)n1 [Compound 88, 2-(6-(4-cyclopropyl-4H-1,2,4-triazol-3-yl)pyridin-2-yl)-1-methyl-1,2-dihydro-3H-indazol-3-one] | 1 to 10 |  |
| O=c1c2ccccc2sn1-c1cccc(-c2nncn2C2CC2)n1 [Compound 89, 2-(6-(4-cyclopropyl-4H-1,2,4-triazol-3-yl)pyridin-2-yl)benzo[d]isothiazol-3(2H)-one] | 1 to 10 |  |

Continued, in another order:

| IC50 [1] [µM] | Compound | IC50 [2] [µM] |
| --- | --- | --- |
| < 0.2 | O=C(c1ccc2c(c1)CN(c1cccc(-c3nncn3C3CC3)n1)C2=O)N1CCOCC1 [Compound 7, 2-(6-(4-cyclopropyl-4H-1,2,4-triazol-3-yl)pyridin-2-yl)-5-(morpholine-4-carbonyl)isoindolin-1-one] | > 0.01 |
| < 0.2 | CN1CCN(C(=O)c2ccc3c(c2)CN(c2cccc(-c4nncn4C4CC4)n2)C3=O)CC1 [Compound 10, 2-(6-(4-cyclopropyl-4H-1,2,4-triazol-3-yl)pyridin-2-yl)-5-(4-methylpiperazine-1-carbonyl)isoindolin-1-one] | 2 to 10 |
| < 0.2 | O=C(c1ccc2c(c1)CN(c1cccc(-c3nncn3C3CC3)n1)C2=O)N1CCCCC1 [Compound 11, 2-(6-(4-cyclopropyl-4H-1,2,4-triazol-3-yl)pyridin-2-yl)-5-(piperidine-1-carbonyl)isoindolin-1-one] | 2 to 10 |
| < 0.2 | O=C(c1ccc2c(c1)CN(c1cccc(-c3nncn3C3CC3)n1)C2=O)N1CCC(O)CC1 [Compound 12, 2-(6-(4-cyclopropyl-4H-1,2,4-triazol-3-yl)pyridin-2-yl)-5-(4-hydroxypiperidine-1-carbonyl)isoindolin-1-one] | > 0.01 |
| < 0.2 | CC1(O)CCN(C(=O)c2ccc3c(c2)CN(c2cccc(-c4nncn4C4CC4)n2)C3=O)CC1 [Compound 13, 2-(6-(4-cyclopropyl-4H-1,2,4-triazol-3-yl)pyridin-2-yl)-5-(4-hydroxy-4-methylpiperidine-1-carbonyl)isoindolin-1-one] | > 0.01 |
| < 0.2 | COC1CCN(C(=O)c2ccc3c(c2)CN(c2cccc(-c4nncn4C4CC4)n2)C3=O)CC1 [Compound 14, 2-(6-(4-cyclopropyl-4H-1,2,4-triazol-3-yl)pyridin-2-yl)-5-(4-methoxypiperidine-1-carbonyl)isoindolin-1-one] | 2 to 10 |
| < 0.2 | CN(C)C1CCN(C(=O)c2ccc3c(c2)CN(c2cccc(-c4nncn4C4CC4)n2)C3=O)CC1 [Compound 15, 2-(6-(4-cyclopropyl-4H-1,2,4-triazol-3-yl)pyridin-2-yl)-5-(4-(dimethylamino)piperidine-1-carbonyl)isoindolin-1-one] | 2 to 10 |
| < 0.2 | CC(=O)N1CCN(C(=O)c2ccc3c(c2)CN(c2cccc(-c4nncn4C4CC4)n2)C3=O)CC1 [Compound 16, 5-(4-acetylpiperazine-1-carbonyl)-2-(6-(4-cyclopropyl-4H-1,2,4-triazol-3-yl)pyridin-2-yl)isoindolin-1-one] | > 0.01 |
| < 0.2 | CC(=O)NC1CCN(C(=O)c2ccc3c(c2)CN(c2cccc(-c4nncn4C4CC4)n2)C3=O)CC1 [Compound 17, N-(1-(2-(6-(4-cyclopropyl-4H-1,2,4-triazol-3-yl)pyridin-2-yl)-1-oxoisoindoline-5-carbonyl)piperidin-4-yl)acetamide] | > 0.01 |
| < 0.2 | O=C1c2cc(-c3cncnc3)ccc2CN1c1cccc(-c2nncn2C2CC2)n1 [Compound 43, 2-(6-(4-cyclopropyl-4H-1,2,4-triazol-3-yl)pyridin-2-yl)-6-(pyrimidin-5-yl)isooindolin-1-one] | 2 to 10 |
| < 0.2 | Cc1ncc(-c2ccc3c(c2)C(=O)N(c2cccc(-c4nncn4C4CC4)n2)C3)cn1 [Compound 44, 2-(6-(4-cyclopropyl-4H-1,2,4-triazol-3-yl)pyridin-2-yl)-6-(2-methylpyrimidin-5-yl)isoindolin-1-one] | 2 to 10 |
| < 0.2 | CC(C)Oc1cc2c(cc1-c1cccnc1)C(=O)N(c1cccc(-c3nncn3C3CC3)n1)C2 [Compound 68, 2-(6-(4-cyclopropyl-4H-1,2,4-triazol-3-yl)pyridin-2-yl)-5-isopropoxy-6-(pyridin-3-yl)isoindolin-1-one] | < 2 |
| < 0.2 | O=C1c2cc(-c3cccnc3)c(OC3CCCC3)cc2CN1c1cccc(-c2nncn2C2CC2)n1 [Compound 69, 5-(Cyclopentyloxy)-2-(6-(4-cyclopropyl-4H-1,2,4-triazol-3-yl)pyridin-2-yl)-6-(pyridin-3-yl)isoindolin-1-one] | < 2 |
